Each block holds one compound with its values, some of them ahead of it. The source made the active and inactive calls. No cut-off for these calls is given here.
Columns and labels:
Cerebral cortex [1] = test: Neuroprotective activity against OGD/R induced injury in male Wistar rat brain cortical slices assessed as reversal of tissue water gain at 0.01 to 1 uM; assay type: functional, tissue-based; conditions: dose 0.01-1 µM
Cerebral cortex [2] = test: Neuroprotective activity against OGD/R induced injury in male Wistar rat brain cortical slices assessed as reversal of LDH release at 0.01 to 1 uM by spectrophometric analysis; assay type: functional, tissue-based; conditions: dose 0.01-1 µM
Cerebral cortex [3] = test: Neuroprotective activity against OGD/R induced injury in male Wistar rat brain cortical slices assessed as effect on LDH release at 1 uM by spectrophometric analysis; assay type: functional, tissue-based
Cerebral cortex [4] = test: Neuroprotective activity against OGD/R induced injury in male Wistar rat brain cortical slices assessed as effect on tissue edema at 10 uM; assay type: functional, tissue-based
Cerebral cortex [5] = test: Neuroprotective activity against OGD/R induced injury in male Wistar rat brain cortical slices assessed as effect on LDH release at 10 uM by spectrophometric analysis; assay type: functional, tissue-based
[6] = Apparent permeability of the compound in PBS buffer at pH 7.4 incubated for 4 hrs under shaking condition by LC-UV-MS analysis; assay type: ADME; conditions: not told
[7] = Permeability of the compound assessed as membrane retention rate by PAMPA method; assay type: ADME
SH-SY5Y [8] = test: Inhibition of Na channel in human SH-SY5Y cells assessed as normalized peak current density at 50 uM under -25 mV by whole-cell patch clamp assay; assay type: cell-based
SH-SY5Y [9] = test: Inhibition of Na channel in human SH-SY5Y cells assessed as reduction in current amplitude at 50 uM by whole-cell patch clamp assay relative to control; assay type: cell-based
SH-SY5Y [10] = test: Inhibition of Na channel in human SH-SY5Y cells assessed as change in channel activation at 50 uM under -30 to + 20 mV by whole-cell patch clamp assay; assay type: cell-based
SH-SY5Y [11] = test: Inhibition of Na channel in human SH-SY5Y cells assessed as maximum conductance at 50 uM by whole-cell patch clamp assay relative to control; assay type: cell-based
SH-SY5Y [12] = test: Inhibition of K channel in human SH-SY5Y cells assessed as reduction in steady-state component of KDR current at 50 uM under +60mV by whole-cell patch clamp assay relative to control; assay type: cell-based
SH-SY5Y [13] = test: Inhibition of K channel in human SH-SY5Y cells assessed as change in channel activation at 50 uM under +25 to +55 mV by whole-cell patch clamp assay; assay type: cell-based
SH-SY5Y [14] = test: Inhibition of K channel in human SH-SY5Y cells assessed as decrease in maximum conductance at 50 uM under +25 to +55 mV by whole-cell patch clamp assay relative to control; assay type: cell-based
Cerebral cortex [15] = test: Neuroprotective activity against OGD/R induced injury in male Wistar rat brain cortical slices assessed as reversal of tissue water gain at 0.01 to 10 uM; assay type: functional, tissue-based; conditions: dose 0.01-10 µM
Cerebral cortex [16] = test: Neuroprotective activity against OGD/R induced injury in male Wistar rat brain cortical slices assessed as reversal of LDH release at 0.01 to 10 uM by spectrophometric analysis; assay type: functional, tissue-based; conditions: dose 0.01-10 µM
Cerebral cortex [17] = test: Neuroprotective activity against OGD/R induced injury in male Wistar rat brain cortical slices assessed as reversal of tissue water gain at 0.001 to 10 uM; assay type: functional, tissue-based; conditions: dose 0.001-10 µM
Cerebral cortex [18] = test: Neuroprotective activity against OGD/R induced injury in male Wistar rat brain cortical slices assessed as reversal of LDH release at 0.001 to 10 uM by spectrophometric analysis; assay type: functional, tissue-based; conditions: dose 0.001-10 µM

Compound: N/C(=N\c1nc2ccc(OC(F)(F)F)cc2s1)N1CCCSc2cc(OC(F)(F)F)ccc21
- Activity (Cerebral cortex [1]): Active
- Activity (Cerebral cortex [2]): inactive
- Activity (Cerebral cortex [3]): inactive
- Activity (Cerebral cortex [4]): inactive
- Activity (Cerebral cortex [5]): inactive

- Papp at 4 h [6]: 17 ×10⁻⁶ cm/s
- R% [7]: 28.24%
Compound: N/C(=N\c1nc2ccccc2s1)N1CCCSc2ccccc21
- inhibition (SH-SY5Y [8]): Active
- inhibition (SH-SY5Y [9]): 28.4%
- inhibition (SH-SY5Y [10]): Active
- inhibition (SH-SY5Y [11]): 28.4%
- inhibition (SH-SY5Y [12]): 28.4%
- inhibition (SH-SY5Y [13]): Active
- inhibition (SH-SY5Y [14]): 35%
- Activity (Cerebral cortex [15]): Active
- Activity (Cerebral cortex [16]): Active

- Papp at 4 h [6]: 17.2 ×10⁻⁶ cm/s
- R% [7]: 10.73%
Compound: CC(C)NCC(O)COc1cccc2ccccc12 (stereo not given) [PROPRANOLOL]

Compound: N/C(=N\c1nc2ccc([N+](=O)[O-])cc2s1)N1CCCSc2cc([N+](=O)[O-])ccc21
- Activity (Cerebral cortex [17]): inactive
- Activity (Cerebral cortex [18]): inactive

From ChEMBL document CHEMBL6127031, “Novel multitarget directed ligands inspired by riluzole: A serendipitous synthesis of substituted benzo[b][1,4]thiazepines potentially useful as neuroprotective agents” (Bioorg Med Chem, 2024)
